Values joined by “and” are separate entries in the source; they are usually repeats but may differ in a detail not shown here. Equal values may be shown once.
Tested on: 485176-168-R4-J1-PDC spheroids with HUVEC/MSC, viability
Experiment: Anticancer human tumor 485176-168-R4-J1-PDC patient-derived pancreatic adenocarcinoma cell line growth inhibition [GQUAD]
Conditions: for viability, T/C: stronger effect = lower value
From the text: DNA G-quadruplex Stabilizer Agents in Combinations in Complex Spheroids
A high-throughput screen of multi-cell type tumor spheroids was designed to identify active combinations of DNA G-quadruplex stabilizer agents and targeted small molecules. Complex spheroids include a stromal component modeled by human endothelial cells (HUVEC) and fibroblasts modeled by human mesenchymal stem cells (MSCs). The concentration ranges selected for each drug and investigational agent were based upon clinically achievable concentrations if the clinical Cmax of the agent was known.
Compounds. The drugs and investigational agents: pidnarulex (CX-5461; NSC782164), APTO-253 (NSC789042), BRACO-19 (NSC847499), peposertib (NSC802822), ceralasertib (NSC780249), elimusertib (NSC800525), camonsertib (NSC841442), AZD-1390 (NSC803789), olaparib (NSC753686), talazoparib (NSC767125), ART-558 (NSC835418), sotorasib (NSC818433), MRTX-1133 (NSC836407), SN-38 (NSC673596), topotecan (NSC609699), etoposide (NSC141540), doxorubicin (NSC123127), gemcitabine (NSC613327), 5-fluorouracil (NSC19893), paclitaxel (NSC125973), vemurafenib (NSC761431), panobinostat (NSC761190), R-306465 (JNJ-16241199; NSC773264), adavosertib (NSC754352), TP-3654 (NSC805149), carboplatin (NSC241240), KSQ-4279 (NSC840948), and staurosporine (NSC755774) were obtained from the National Cancer Institute (NCI) Developmental Therapeutics Program Chemical Repository (34). The FDA-approved anticancer drug set is available from the NCI Developmental Therapeutics Program. […] The stock solutions were prepared in dimethyl sulfoxide (DMSO, Sigma-Aldrich, St. Louis, MO, cat. D2650) at 800-fold the tested concentration and stored at -70 degrees C prior to their use. All drugs and investigational agents were tested over a range starting from a high concentration at or near the clinical Cmax and decreasing in half-log increments. If the clinical Cmax for an agent had not been determined, the highest concentration tested was 10 microM.
2.3 Cell Culture. All cells were maintained in an incubator at 37 degrees C and 5% CO2 with 95% humidity. The PDC lines were cultured according to standard operating procedures established by the NCI PDMR. All PDCs were thawed and cultured in Matrigel-coated flasks prepared with a working solution of 1X Ham's F-12 nutrient mix, without supplementation (Invitrogen, cat. 11765054), 100 U/mL penicillin-streptomycin (Invitrogen, cat. 15140122), and 2.5% Matrigel (Corning Inc., cat. 354248) for the first three passages. The 857933-349-R-J2-PDC line was cultured in 6C/Colon 1B media, which includes advanced DMEM/F-12 (Thermo Fisher Scientific, cat. 12634028), 10 mM HEPES (Thermo Fisher Scientific, cat. 15630080), 1X GlutaMAX supplement (Thermo Fisher Scientific, cat. 35050061), 0.1 mg/mL primocin (InvivoGen, cat. ant-pm-2), 10% defined fetal bovine serum, heat inactivated (HyClone Laboratories Inc., cat. SH30070.03HI), 50% L-WRN conditioned media (ATCC, cat. CRL-3276), 1.25 mM N-Acetyl-L-cysteine (Sigma-Aldrich, cat. A9165), 10 mM nicotinamide (Sigma-Aldrich, cat. N0636), 1X B-27 supplement (Thermo Fisher Scientific, cat. 17504044), 1X N-2 supplement (Thermo Fisher Scientific, cat. 17502048), 10 microM Y-27632 dihydrochloride (Tocris Bioscience, cat. 1254), and 50 ng/mL human EGF recombinant protein (Thermo Fisher Scientific, cat. PHG0311). The 485176-168-R4-J1-PDC line was cultured in Panc media, which includes all 6C/Colon 1B media components plus 100 ng/mL human FGF-10 (Thermo Fisher Scientific, cat. 100-26), 500 nM SB-431542 (Selleckchem, cat. S1067), and gastrin (Tocris, cat. 3006).
[…]

[1] = curve of first compound, second compound 0.0316 µM
[2] = curve of first compound, second compound 0.1 µM
[3] = curve of first compound, second compound 0.316 µM
[4] = curve of first compound, second compound 1 µM
[5] = curve of first compound, second compound 3.16 µM
[6] = curve of first compound, second compound 10 µM
[7] = second compound 0.0316 µM, first compound 0.0316 µM
[8] = second compound 0.0316 µM, first compound 0.316 µM
[9] = second compound 0.1 µM, first compound 0.0316 µM
[10] = second compound 0.1 µM, first compound 0.316 µM
[11] = second compound 0.316 µM, first compound 0.0316 µM
[12] = second compound 0.316 µM, first compound 0.316 µM
[13] = second compound 1 µM, first compound 0.0316 µM
[14] = second compound 1 µM, first compound 0.316 µM
[15] = second compound 3.16 µM, first compound 0.0316 µM
[16] = second compound 3.16 µM, first compound 0.316 µM
[17] = second compound 10 µM, first compound 0.0316 µM
[18] = second compound 10 µM, first compound 0.316 µM
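Note: spheroids exposed to compounds for seven days before readout.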
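Throughout, for viability, T/C: percent viability relative to DMSO vehicle control wells as 100%.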

CCc1c2c(nc3ccc(O)cc13)-c1cc3c(c(=O)n1C2)COC(=O)[C@]3(O)CC + Cc1[nH]c2ccc(F)cc2c1-c1nc2c3cccnc3c3ncccc3c2[nH]1
IC50 [1]: 4.64 nM | IC50 [2]: 5.56 nM | IC50 [3]: 7.02 nM | IC50 [4]: 6.08 nM | IC50 [5]: 7.23 nM | IC50 [6]: 4.06 nM | viability, T/C (second compound 0.0316 µM, first compound 0.000999 µM): 76.6% | viability, T/C (second compound 0.0316 µM, first compound 0.00316 µM): 58.1% | viability, T/C (second compound 0.0316 µM, first compound 0.00999 µM): 35.2% | viability, T/C [7]: 20.1% | viability, T/C (second compound 0.0316 µM, first compound 0.0999 µM): 17.6% | viability, T/C [8]: 6.23% | viability, T/C (second compound 0.1 µM, first compound 0.000999 µM): 78.8% | viability, T/C (second compound 0.1 µM, first compound 0.00316 µM): 62.2% | viability, T/C (second compound 0.1 µM, first compound 0.00999 µM): 35.6% | viability, T/C [9]: 27.4% | viability, T/C (second compound 0.1 µM, first compound 0.0999 µM): 10.9% | viability, T/C [10]: 5.79% | viability, T/C (second compound 0.316 µM, first compound 0.000999 µM): 83.4% | viability, T/C (second compound 0.316 µM, first compound 0.00316 µM): 71.4% | viability, T/C (second compound 0.316 µM, first compound 0.00999 µM): 38.2% | viability, T/C [11]: 22.4% | viability, T/C (second compound 0.316 µM, first compound 0.0999 µM): 15.7% | viability, T/C [12]: 3.93% | viability, T/C (second compound 1 µM, first compound 0.000999 µM): 71.4% | viability, T/C (second compound 1 µM, first compound 0.00316 µM): 60.9% | viability, T/C (second compound 1 µM, first compound 0.00999 µM): 41.6% | viability, T/C [13]: 23.8% | viability, T/C (second compound 1 µM, first compound 0.0999 µM): 12.5% | viability, T/C [14]: 7.51% | viability, T/C (second compound 3.16 µM, first compound 0.000999 µM): 98.3% | viability, T/C (second compound 3.16 µM, first compound 0.00316 µM): 73.2% | viability, T/C (second compound 3.16 µM, first compound 0.00999 µM): 38.1% | viability, T/C [15]: 24.4% | viability, T/C (second compound 3.16 µM, first compound 0.0999 µM): 13.3% | viability, T/C [16]: 5.95% | viability, T/C (second compound 10 µM, first compound 0.000999 µM): 76.1% | viability, T/C (second compound 10 µM, first compound 0.00316 µM): 50% | viability, T/C (second compound 10 µM, first compound 0.00999 µM): 37.8% | viability, T/C [17]: 27.7% | viability, T/C (second compound 10 µM, first compound 0.0999 µM): 10.8% | viability, T/C [18]: 6.05%

Cc1[nH]c2ccc(F)cc2c1-c1nc2c3cccnc3c3ncccc3c2[nH]1
viability, T/C (compound 0.1 µM): 101% [middle of 12 runs] | viability, T/C (compound 0.316 µM): 97.9% [middle of 12 runs] | viability, T/C (compound 1 µM): 99.5% [middle of 12 runs] | viability, T/C (compound 10 µM): 78.8% [middle of 12 runs] | IC50 (compound alone, run of 03/18/2024): > 10000 nM | IC50 (compound alone, run of 03/26/2024): > 10000 nM

CC1COCCN1c1cc(-c2ccnn2C)c2ccnc(-c3ccn[nH]3)c2n1 (configuration not stated)
viability, T/C (compound 0.0316 µM): 76.2% and 71.6% and 87.6% | viability, T/C (compound 0.1 µM): 39.2% and 47.5% and 37.8% | viability, T/C (compound 0.316 µM): 18.1% and 14.2% and 15.9% | viability, T/C (compound 1 µM): 10.4% and 10.2% and 9.3% | viability, T/C (compound 3.16 µM): 11.3% and 9.69% and 10% | viability, T/C (compound 10 µM): 11.9% and 12.4% and 10.7% | IC50 (curve of compound): 71.6 nM and 88.8 nM and 75.5 nM

CCCS(=O)(=O)Nc1ccc(F)c(C(=O)c2c[nH]c3ncc(-c4ccc(Cl)cc4)cc23)c1F + Cc1cnc(CNC(=O)c2c(=O)c3ccc(N4CCCN(C)CC4)nc3n3c2sc2ccccc23)cn1
IC50 [1]: > 10000 nM | IC50 [2]: > 10000 nM | IC50 [3]: > 10000 nM | IC50 [4]: < 31.6 nM | IC50 [5]: < 31.6 nM | IC50 [6]: < 31.6 nM | viability, T/C [7]: 95.8% | viability, T/C (second compound 0.0316 µM, first compound 0.1 µM): 77.4% | viability, T/C [8]: 82.9% | viability, T/C (second compound 0.0316 µM, first compound 1 µM): 81.8% | viability, T/C (second compound 0.0316 µM, first compound 3.16 µM): 92.8% | viability, T/C (second compound 0.0316 µM, first compound 10 µM): 66% | viability, T/C [9]: 63.8% | viability, T/C (second compound 0.1 µM, first compound 0.1 µM): 68.2% | viability, T/C [10]: 60.2% | viability, T/C (second compound 0.1 µM, first compound 1 µM): 80.3% | viability, T/C (second compound 0.1 µM, first compound 3.16 µM): 76.3% | viability, T/C (second compound 0.1 µM, first compound 10 µM): 49.7% | viability, T/C [11]: 55.9% | viability, T/C (second compound 0.316 µM, first compound 0.1 µM): 55.3% | viability, T/C [12]: 51.2% | viability, T/C (second compound 0.316 µM, first compound 1 µM): 56.4% | viability, T/C (second compound 0.316 µM, first compound 3.16 µM): 57.8% | viability, T/C (second compound 0.316 µM, first compound 10 µM): 49.9% | viability, T/C [13]: 45.4% | viability, T/C (second compound 1 µM, first compound 0.1 µM): 56.1% | viability, T/C [14]: 47% | viability, T/C (second compound 1 µM, first compound 1 µM): 41.4% | viability, T/C (second compound 1 µM, first compound 3.16 µM): 48.9% | viability, T/C (second compound 1 µM, first compound 10 µM): 35.4% | viability, T/C [15]: 45.1% | viability, T/C (second compound 3.16 µM, first compound 0.1 µM): 43.5% | viability, T/C [16]: 43.6% | viability, T/C (second compound 3.16 µM, first compound 1 µM): 44.3% | viability, T/C (second compound 3.16 µM, first compound 3.16 µM): 43.9% | viability, T/C (second compound 3.16 µM, first compound 10 µM): 40.9% | viability, T/C [17]: 39.1% | viability, T/C (second compound 10 µM, first compound 0.1 µM): 36.3% | viability, T/C [18]: 30.1% | viability, T/C (second compound 10 µM, first compound 1 µM): 37.2% | viability, T/C (second compound 10 µM, first compound 3.16 µM): 39.6% | viability, T/C (second compound 10 µM, first compound 10 µM): 35.4%

Source: PubChem BioAssay AID2060509 (Molecular Pharmacology Branch, DTP, NCI, 2025)
